Measured values as given in patent publication US7951789B2 (priority 2006, dated 2011).
Like-named read-outs stand apart in the source and are kept apart here.

Columns and labels:
[1] = test system: HCV Conl subgenomic replicon (GS4.1 cells); test: HCV replicon assay (NS4A ELISA, HCV ELISA 2); format: cell-based; settings: Hepatitis C virus
Experimental: (§1) Huh-7 cells containing HCV Conl subgenomic replicon (GS4.1 cells), (C. Seeger; Fox Chase University, Philadelphia, Pa., USA), are grown in Dulbecco's Modified Eagle Medium (DMEM) supplemented with 10% fetal bovine serum (FBS), 2 mM L-glutamine, 110 mg/L sodium pyruvate, 1×non-essential amino acids, 100 U/mL penicillin-streptomycin and 0.5 mg/mL G418 (Invitrogen). For dose-response testing, the cells are seeded in 96-well plates at 7.5×10^3 cells/well in a volume of 50 μL and incubated at 37° C./5% CO2. Three hours after plating, 50 μL of ten 2-fold serial dilutions of compounds (highest concentration, 75 μM) are added and cell cultures were incubated at 37° C./5% CO2 in the presence of 0.5% DMSO. Alternatively, compounds are tested at a single concentration of 15 μM. In all cases, Huh-7 cells lacking the HCV replicon served as negative control. The cells are incubated in the presence of compounds for 72 hours after which they were monitored for expression of the NS4A protein by enzyme-linked immunosorbent assay (ELISA). For this, the plates were then fixed for 1 min with 1:1 acetone:methanol, washed twice with phosphate-buffered saline (PBS), 0.1% Tween 20, blocked for 1 hour at room temperature with TNE buffer containing 10% FBS and then incubated for 2 h at 37° C. with the anti-NS4A mouse monoclonal antibody A-236 (ViroGen) diluted in the same buffer. After washing three times with PBS, 0.1% Tween 20, the cells are incubated 1 hour at 37° C. with anti-mouse immunoglobulin G-peroxidase conjugate in TNE, 10% FBS. After washing as described above, the reaction is developed with O-phenylenediamine (Zymed). The reaction is stopped after 30 minutes with […] and the absorbance is read at 492 nm using a Sunrise Tecan spectrophotometer. EC50 values are determined from the % inhibition versus concentration data using a sigmoidal non-linear regression analysis based on four parameters with Tecan Magellan software. […] For cytotoxicity evaluation, GS4.1 cells are treated with compounds as described above and cellular viability was monitored using a Cell Titer 96 AQueous One Solution Cell Proliferation Assay (Promega). CC50 values are determined from the % cytotoxicity versus concentration data with Tecan Magellan software as described above.

[2] = Cytotoxicity evaluation in GS4.1 cells (Cell Titer 96 AQueous One Solution); format: cell-based; settings: human; for CC50: 72 hours
Experimental: as §1

[3] = GS4.1 cells, 72 hours, NS4A ELISA, read-out: HCV ELISA 2 EC50
[4] = 72 h, read-out: HCV ELISA 2 EC50 (μM)

Row | SMILES | EC50 [1, 3] | CC50 [2] | EC50 [1, 4] | CC50 at 72 h [2]
1 | CC(C)(CO)C(=O)SCCOP(=O)(NC1CCCCC1)OC[C@H]1O[C@@H](n2ccc(N)nc2=O)[C@](C)(O)[C@@H]1O (stereo in doubt) [Example B354, Hydroxy-tBuSATE N-cyclohexylaminephosphosphoramidate Derivative of 2′-C-methyl-cytidine] | 1 to 10 µM | > 75 µM | – | –
2 | CC(C)(CO)C(=O)SCCOP(=O)(NCc1ccccc1)OC[C@H]1O[C@@H](n2cnc3c(=O)[nH]c(N)nc32)[C@]2(C)OC(=O)O[C@H]12 (stereo in doubt) [Example B307, N-Benzylaminyl-O-(hydroxy-tert-butyl-S-acyl-2-thioethyl)-2′,3′-O-carbonate-2′-C-methylguanosin-5′-yl phosphate] | < 1 µM | > 75 µM | – | –
3 | CC(C)(CO)C(=O)SCCOP(=O)(NCc1ccccc1)OC[C@H]1O[C@@H](n2cnc3c(=O)[nH]cnc32)[C@](C)(O)[C@@H]1O (mixture of isomers) [Example B186, Hydroxy-tBuSATE N-benzylphosphoramidate Derivative of 2′-C-methylinosine] | 1 to 10 µM | > 75 µM | – | –
4 | CC(C)(CO)C(=O)SCCOP(=O)(NCc1ccccc1)OC[C@H]1O[C@@H](n2cnc3c(=O)[nH]c(N)nc32)[C@](C)(O)[C@@H]1O (mixture of isomers) [Example B299, Hydroxy-tBuSATE N-benzylphosphoramidate Derivative of 2′-C-methylguanosine] | < 1 µM | > 75 µM | – | –
5 | CCCCN(CCCC)P(=O)(OCCSC(=O)C(C)(C)CO)OC[C@H]1O[C@@H](n2ccc(N)nc2=O)[C@](C)(O)[C@@H]1O (mixture of isomers) [Example B244, Hydroxy-tBuSATE N,N-(dibutylamine)phosphoramidate Derivative of 2′-C-methylcytidine] | – | – | > 10 µM | > 75 µM
6 | CC(=O)Nc1ccn([C@@H]2O[C@H](COP(=O)(NCc3ccccc3)OCCSC(=O)C(C)(C)CO)[C@@H](O)[C@@]2(C)O)c(=O)n1 (stereo in doubt) [Example B183, Hydroxy-tBuSATE N-benzylphosphoramidate Derivative of 2′-C-methyl-NH-4-acetyl-cytidine] | > 10 µM | > 75 µM | – | –
7 | CC(C)(CO)C(=O)SCCOP(=O)(NCc1ccc(C(F)(F)F)cc1)OC[C@H]1O[C@@H](n2cnc3c(=O)[nH]c(N)nc32)[C@](C)(O)[C@@H]1O (stereo in doubt) [Example B242, O-(Hydroxy-tert-butyl-S-acyl-2-thioethyl)-2′-C-methylguanosin-5′-yl-N-(4-trifluoromethyl)-benzylaminyl Phosphate] | < 1 µM | > 75 µM | – | –
8 | CC(=O)O[C@@H]1[C@@H](COP(=O)(NCc2ccccc2)OCCSC(=O)C(C)(C)CO)O[C@@H](n2ccc(N)nc2=O)[C@]1(C)OC(C)=O (stereo in doubt) [Example B390, Hydroxy-tBuSATE N-benzylphosphoramidate Derivative of 2′-C-methyl-2′,3′-di-O-acetyl-cytidine] | > 10 µM | > 75 µM | – | –
9 | C#C[C@@]1(F)[C@H](O)[C@@H](CO)O[C@H]1n1cnc2c(=O)[nH]c(N)nc21 [Example D961] | > 10 µM | > 75 µM | – | –
10 | C[C@@]1(O)[C@H](O)[C@@H](CO)O[C@H]1n1ccc(N)nc1=O [A634 (NM107), 2′methyl cytidine, reference compound] | 1 to 10 µM | > 75 µM | – | –
11 | C[C@@]1(O)[C@H](O)[C@@H](CO)O[C@H]1n1cnc2c(N)ncnc21 [A374 (NM80), 2′-C-methyladenosine, reference compound] | < 1 µM | ≤ 75 µM | – | –
12 | CC(C)(CO)C(=O)SCCOP(=O)(NCc1ccccc1C(F)(F)F)OC[C@H]1O[C@@H](n2ccc(N)nc2=O)[C@](C)(O)[C@@H]1O (stereo in doubt) [Example B187, Hydroxy-tBuSATE N-(2-(trifluoromethyl)benzyl)phosphosphoramidate Derivative of 2′-C-methylcytidine] | 1 to 10 µM | > 75 µM | – | –
13 | C#C[C@@]1(F)[C@H](O)[C@@H](COP(=O)(NCc2ccccc2)OCCSC(=O)C(C)(C)CO)O[C@H]1n1cnc2c(=O)[nH]c(N)nc21 (stereo in doubt) [Example B503, N-Benzylaminyl-{9-[(2R)2-deoxy-2-fluoro-2-C-ethynyl-β-D-erythro-furanosyl]-guanin}-5′-yl-O-(hydroxy-tert-butyl-S-acyl-2-thioethyl) Phosphate] | 1 to 10 µM | > 75 µM | – | –
14 | C[C@@]1(O)[C@H](O)[C@@H](CO)O[C@H]1n1cnc2c(=O)[nH]cnc21 [Example A608, 2′-C-methylinosine, reference compound] | > 10 µM | > 75 µM | – | –
15 | C[C@@]1(O)[C@H](O)[C@@H](CO)O[C@H]1n1cnc2c(Cl)ncnc21 [Example A849, 9-[2-C-methyl-β-ribofuranosyl]-6-chloropurine, reference compound] | < 1 µM | > 75 µM | – | –
16 | CC(C)(CO)C(=O)SCCOP(=O)(NCc1ccccc1)OC[C@H]1O[C@@H](n2cnc3c(Cl)ncnc32)[C@](C)(O)[C@@H]1O (stereo partly drawn) [Example B396, Hydroxy-tBuSATE N-benzylphosphoramidate Derivative of 9-[2-C-methyl-β-ribofuranosyl]-6-chloropurine] | < 1 µM | ≤ 75 µM | – | –
17 | CN(Cc1ccccc1)P(=O)(OCCSC(=O)C(C)(C)CO)OC[C@H]1O[C@@H](n2ccc(N)nc2=O)[C@](C)(O)[C@@H]1O (mixture of isomers) [Example B308, Hydroxy-tBuSATE N-methylbenzylphosphosphoramidate Derivative of 2′-C-methyl-cytidine] | – | – | 1 to 10 µM | > 75 µM
18 | CC(C)(CO)C(=O)SCCOP(=O)(NCc1ccc(C(F)(F)F)cc1)OC[C@H]1O[C@@H](n2ccc(N)nc2=O)[C@](C)(O)[C@@H]1O (stereo in doubt) [Example B399, Hydroxy-tBuSATE N-(4-(trifluoromethyl)benzyl)phosphosphoramidate Derivative of 2′-C-methylcytidine] | 1 to 10 µM | > 75 µM | – | –
19 | C[C@@]1(O)[C@H](O)[C@@H](CO)O[C@H]1n1ccc(=O)[nH]c1=O [C809 (NM106), 2′-C-methyluridine, reference compound] | > 10 µM | > 75 µM | – | –
20 | CC(C)(CO)C(=O)SCCOP(=O)(NCc1ccccc1)OC[C@H]1O[C@@H](n2ccc(=O)[nH]c2=O)[C@](C)(O)[C@@H]1O (stereo partly shown) [Example B229, Hydroxy-tBuSATE N-benzylphosphoramidate Derivative of 2′-C-methyluridine] | 1 to 10 µM | > 75 µM | – | –
21 | CC(C)C(N)C(=O)O[C@@H]1[C@@H](COP(=O)(NCc2ccccc2)OCCSC(=O)C(C)(C)CO)O[C@@H](n2ccc(N)nc2=O)[C@]1(C)O (stereo partly drawn) [Example B234, Hydroxy-tBuSATE N-benzylphosphoramidate Derivative of 3′-O-L-valinyl-2′-C-methylcytidine] | 1 to 10 µM | > 75 µM | – | –
22 | CC(C)(CO)C(=O)SCCOP(=O)(NCc1ccccc1)OC[C@H]1O[C@@H](n2cnc3c(N)ncnc32)[C@](C)(O)[C@@H]1O (mixture of isomers) [Example B263, Hydroxy-tBuSATE N-benzylphosphoramidate Derivative of 2′-C-methyladenosine] | 1 to 10 µM | > 75 µM | – | –
23 | CC(C)(CO)C(=O)SCCOP(=O)(OC[C@H]1O[C@@H](n2ccc(N)nc2=O)[C@](C)(O)[C@@H]1O)N1CCCC1 (mixture of isomers) [Example B395, Hydroxy-tBuSATE N-pyrrolidinephosphosphoramidate Derivative of 2′-C-methylcytidine] | – | – | 1 to 10 µM | > 75 µM
24 | C[C@@]1(O)[C@H](O)[C@@H](CO)O[C@H]1n1cc(F)c2c(N)ncnc21 [Example E810, 2′-C-methyl-7-deaza-7-fluoro-adenosine, reference compound] | < 1 µM | > 75 µM | – | –
25 | CCCCCCCCN(C)P(=O)(OCCSC(=O)C(C)(C)CO)OC[C@H]1O[C@@H](n2ccc(N)nc2=O)[C@](C)(O)[C@@H]1O (stereo in doubt) [Example B204, Hydroxy-tBuSATE N-(n-methyl-n-octyl-amine)phosphosphoramidate Derivative of 2′-C-methylcytidine] | – | – | 1 to 10 µM | > 75 µM
26 | C[C@@]1(O)[C@H](O)[C@@H](CO)O[C@H]1n1cnc2c(=O)[nH]c(N)nc21 [A844 (NM 108), 2′-C-methylguanosine, reference compound] | 1 to 10 µM | > 75 µM | – | –
